From US5932217A, “Peptides which inhibit adhesion between leukocytes and endothelial cells” (priority 1994, dated 1999)

Tests used:
[1] = tested on: human umbilical vein endothelial cells; assay: Adherence of neutrophils to cultured activated endothelial cells; assay type: cell-based
Method: Human umbilical vein endothelial cells (HUVEC, first passage, Clonetics, San Diego, Calif.) were subcultured at confluence into Terasaki tissue culture wells. After 24 hours, confluent monolayers were used for adherence assays. Monolayers were stimulated with 10 ng/ml TNF alpha (Boehringer Mannheim, Indianapolis, Ind.) at 37° C. for four hours. 30 μl of human neutrophils (10^6 /ml) were labeled with fluorescein by the method of Lo et al. (1991), J. Exp. Med. 173 1493-1500, and preincubated for 15 minutes at 37° C. with 20 μl of peptides (0.5 mM in HAP) or HAP (phosphate buffered saline containing 0.5 mg/ml human serum albumin, 3 mM glucose, and 0.3 U/ml aprotinin) as a control buffer. For some experiments, endothelial cells ere pretreated from 10 minutes with Factor X or antibodies against Factor X receptor (EPR-1; Altieri et al. (1990), J. Immunol. 145, 246-253) 12H1 and 9D4 (obtained from Dr. D. Altieri, Scripps Research Institute, LaJolla, Calif.) and then washed. Neutrophils were allowed to adhere to the monolayer for 15 mins. at 37° C. and unbound cells were removed by submersion of the plate in PBS buffer. The number of adherent neutrophils was counted in a 40× microscope field and expressed as a percentage of adherence in control wells with neutrophils treated with HAP buffer alone. The mAb IB4 against CD18 (50 μg/ml; Merck Inc., Rahway, N.J.) served as a positive control.
The ability of FHA peptides and anti-CD18 or anti-Factor X receptor antibodies to interact cooperatively to inhibit neutrophil adherence to endothelial cells was assessed by measuring neutrophil adherence to endothelial cells in the presence of antibody as well as antibody plus peptide. Anti-CD18 mAb IB4 was added to leukocytes at 10 μg/ml 10 min before the assay. Anti-Factor X receptor mAb 12H1 (10 μl of ascites) or 9D4 (10 μg/ml) were added to the endothelial cell monolayers 10 min before the assay. The peptides were added at 5 μg/ml. The results are shown in Table 8 where the numerical values are in % of control binding.
(§1) The procedures for determining the neutrophil adherence to cultured endothelial cells and the transendothelial migration of neutrophils were identical with those of Example 9. Control values were the same as those shown in Example 9.

[2] = tested on: human umbilical vein endothelial cells; assay: Transendothelial migration of neutrophils; assay type: cell-based; details: peptides 0.01 mM
Method: Transendothelial migration of neutrophils was studied based on a method described by Muller et al. (1992), J. Exp. Med. 176: 819-828. Briefly, human neutrophils suspended in ice-cold Hanks balanced salt solution (HBSS) containing Ca^++ and Mg^++ (Sigma) were fluoresceinated by adding 3.3 μl/ml 5-(and 6-)carboxyfluorescein diacetate, succinimidyl ester (CFSE, Molecular Probes Inc., Oreg.). After incubation for 30 mins. on ice, neutrophils were washed twice in cold HBSS with Ca^++ and Mg^++ and resuspended in cold Medium 199 (M199, Sigma) to a final concentration of 10^6 /ml. Human umbilical vein endothelial cells were subcultured at confluence into 96-well tissue culture plates (Becton Dickinson Labware, Lincoln Park, N.J.) that were coated with hydrated collagen gel (Vitrogen; Collagen Corporation, Palo Alto, Calif.) and fibronectin. Endothelial cells were stimulated with 10 ng/ml TNF-alpha for 4 hours and washed three times with warm M199. Neutrophils (10^6 /ml) were preincubated with 0.01 mM of peptides or with 1 μM of native FHA in M199 for 5 mins. on ice before they were added in 100 μl aliquots to the endothelial cells. For positive control, neutrophils were pre-incubated with 25 μg/ml anti-CD18 mAb IB4. For negative control, neutrophils were treated with 25 μg/ml mAb W6/32 against HLA class I antigen (Dako, Carpinteria, Calif.). The cells were incubated for 1 hour at 37° C., 5% CO2. To terminate transmigration, the supernatant fluid was aspirated and the wells were filled with warm 1 mM EGTA (Sigma) in HBSS without Ca and Mg. The plates were covered with plate sealers (Dynatech, Alexandria, Va.) and centrifuged in an inverted position at 250 g for 3 mins. at room temperature. To remove residual non-transmigrated neutrophils from the endothelial cells, monolayers were washed twice with 200 μl of warm Hanks solution without Ca and Mg. Fluorescence was quantitated using a fluorescence counter (Millipore Cytofluor™ 2300). The percentage of transmigrated neutrophils was determined by comparing the amount of fluorescence of test wells with that measured in collagen- and fibronectin-coated wells without endothelial cells. […] Percent inhibition of transendothelial migration of neutrophils was calculated by comparing the number of transmigrated cells in wells containing neutrophils treated with peptide to neutrophils treated with M199 alone and arbitrarily set at 100% transendothelial migration (TEM).
as §1

Row | Substance | concentration at which loss of activity (≤20% inhibition) occurred [1] | maximal inhibition of neutrophil attachment ([1]; FIG. 25B) | inhibition of adherence of human neutrophils to cultured endothelial cells ([1]; Native FHA 50 ug/ml (0.2 uM), FHA peptide C 1 mg/ml (0.2 mM)) [%] | reduction of neutrophil adherence to stimulated HUVEC ([1]; native FHA 25 μg/ml=0.3 μM, mAb IB4 50 μg/ml) [%] | % Inhibition of TEM ([2]; FHA 1 μM, mAb IB4 25 μg/ml) [%] | % Inhibition of TEM ([2]; FHA 1 μM, mAb IB4 25 μg/ml, listed as Intact FHA) [%] | % Inhibition of TEM ([2]; native FHA 1 μM, mAbs 25 μg/ml) [%] | inhibition of neutrophil adherence to stimulated HUVEC, comparison in words ([1]; peptides 0.5 mM, FIG. 17) | % Inhibition of TEM ([2]; native FHA 1 μM, mAbs 25 μg/ml, listed as acetyl/amide modified FHA peptide II) [%]
1 | Filamentous hemagglutinin [native FHA] | 10^-3 μM | ~ 50% | 51±7 | 51±8 | 82 ± 1 | 82±1 | 82±1 |  | 
2 | Ac-ETKEVDG-NH2 [Acetyl/Amide-FHA II] |  |  |  |  |  |  | 61 ± 6 | significantly enhanced | 61±6
